Reference: US9382295B2, “Cyclic depsipeptide compounds and their uses” (Cypralis Limited, priority 2012, dated 2016)
Read-outs that look alike come from different tables or passages of the source.

Experiments:
[1] = Water solubility assay (pH 7.8 buffer); assay type: physicochemical; details: pH 7.8
Method in brief: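 DMSO stocks were diluted into 35 mM HEPES pH 7.8 to final 0–100 μM with 1% DMSO, in triplicate. Plates were shaken 18 h at 25 °C, then precipitation was detected as increased absorbance at 650 nm. Values give the concentration (μM) at which the compound remains in solution.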

cyclophilin A (Cyp A) = biological target: T1, cyclophilin A (Cyp A) (Homo sapiens, UniProt P62937); experiment: Protease-free PPIase assay, cyclophilin A; assay type: biochemical
T1 construct: purchased Sigma C3805
T1 sequence (P62937 whole entry): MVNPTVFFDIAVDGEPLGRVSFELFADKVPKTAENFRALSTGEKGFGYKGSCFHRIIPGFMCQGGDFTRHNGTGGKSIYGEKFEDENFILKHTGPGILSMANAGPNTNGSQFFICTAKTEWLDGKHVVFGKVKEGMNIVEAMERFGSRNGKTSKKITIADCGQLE
Method in brief: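 Protease-free cis-trans isomerisation: 2 nM recombinant human cyclophilin A with 60 μM succinimide-peptide substrate in 35 mM HEPES pH 7.8 plus DTT, at 10.0 °C, max 0.5% DMSO. Absorbance at 330 nm was fitted to first-order kinetics, background subtracted, and catalytic rates versus inhibitor concentration gave Ki.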

cyclophilin D (Cyp D) = cyclophilin D (Cyp D) (Homo sapiens, UniProt P30405); experiment: Protease-free PPIase assay, cyclophilin D; assay type: biochemical
Chain of cyclophilin D (Cyp D) (P30405 30-207): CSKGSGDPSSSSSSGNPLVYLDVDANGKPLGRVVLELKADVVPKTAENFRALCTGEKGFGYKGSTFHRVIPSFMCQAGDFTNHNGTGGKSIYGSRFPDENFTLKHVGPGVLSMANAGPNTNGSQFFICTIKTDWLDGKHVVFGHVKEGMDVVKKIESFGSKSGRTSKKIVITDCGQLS
Method in brief: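 Cis-trans isomerization of a succinimide-peptide substrate (60 µM final) by 2 nM enzyme was followed at 330 nm in 35 mM HEPES pH 7.8 with 50 µM DTT, stirred at 10.0 °C, DMSO ≤0.5%. First-order rate constants minus background were fitted against inhibitor concentration to give Ki.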

[2] = Rat pharmacokinetics, iv and po dosing, whole blood and plasma; assay type: in vivo; details: for AUC(0-inf) / AUC(0-t) / Cmax / half-life / clearance / Vd / bioavailability / Tmax: mean; for half-life: read-out: half-life (T1/2) (converted); for clearance: read-out: systemic clearance (converted); for Vd: read-out: volume of distribution at the terminal phase; for bioavailability: po 10 mg/kg vs iv 1 mg/kg
Protocol: Rat pharmacokinetic data was obtained for example 2, following iv dosing at 1 mg/kg and po dosing at 10 mg/kg and individual analysis of plasma and whole blood samples at various time points was carried out.

CC(C)CC1NC(=O)[C@H](CC(C)C)N(C)C(=O)CN(C)C(=O)C([C@@H](C)O)NC(=O)C([C@H](O)[C@H](C)CCN2CCOCC2)N(C)C(=O)C(C(C)C)N(C)C(=O)C(CC(C)C)NC(=O)C(CC(C)C)N(C)C(=O)C(C(C)C)OC(=O)C(C)NC(=O)C(CC(C)C)N(C)C1=O (stereo in doubt) [Example 2, cyclo-[(3R,4R,5S)-4-(hydroxy)-3-methyl-5-(methylamino)-1-N-morpholino-hexanoic acid-Thr-Sar-MeLeu-Leu-MeLeu-Ala-D-Hiv-MeLeu-Leu-MeVal]]
solubility at 18 h [1]: > 100 µM
Ki (cyclophilin A (Cyp A)): 9.2 nM
Ki (cyclophilin D (Cyp D)): 6.5 nM
blood plasma ratio ([2]; intravenous, 1 mg/kg, from volumes of distribution in plasma and whole blood, read-out: difference in blood to plasma ratio): ~3
systemic clearance relative to hepatic blood flow in rats (3.31 L/hr/kg) ([2]; plasma, iv 1 mg/kg): 1.26 fold
volume of distribution relative to total body water (0.67 L/kg) in rats ([2]; plasma, iv 1 mg/kg): 44.69 fold
AUC(0-inf) ([2]; plasma, iv 1 mg/kg): 239 ng·h/mL
AUC(0-t) ([2]; plasma, iv 1 mg/kg): 197 ng·h/mL
Cmax ([2]; plasma, iv 1 mg/kg): 275 ng/mL
half-life ([2]; plasma, iv 1 mg/kg): 4.96 h
clearance ([2]; plasma, iv 1 mg/kg): 69.7 mL/min/kg
Vd ([2]; plasma, iv 1 mg/kg): 29.9 L/kg
bioavailability ([2]; plasma): 95.9%
AUC(0-inf) ([2]; plasma, po 10 mg/kg): 2290 ng·h/mL
AUC(0-t) ([2]; plasma, po 10 mg/kg): 2250 ng·h/mL
Tmax ([2]; plasma, po 10 mg/kg): 2 h
Cmax ([2]; plasma, po 10 mg/kg, read-out: Cmax): 328 ng/mL
half-life ([2]; plasma, po 10 mg/kg): 4.4 h
systemic clearance as share of hepatic blood flow in rats (3.31 L/hr/kg) ([2]; whole blood, iv 1 mg/kg): 35.0%
volume of distribution relative to total body water (0.67 L/kg) in rats ([2]; whole blood, iv 1 mg/kg): 15.40 fold
AUC(0-inf) ([2]; whole blood, iv 1 mg/kg): 859 ng·h/mL
AUC(0-t) ([2]; whole blood, iv 1 mg/kg): 827 ng·h/mL
Cmax ([2]; whole blood, iv 1 mg/kg): 643 ng/mL
half-life ([2]; whole blood, iv 1 mg/kg): 6.14 h
clearance ([2]; whole blood, iv 1 mg/kg): 19.3 mL/min/kg
Vd ([2]; whole blood, iv 1 mg/kg): 10.3 L/kg
bioavailability ([2]; whole blood): 70.1%
AUC(0-inf) ([2]; whole blood, po 10 mg/kg): 6020 ng·h/mL
AUC(0-t) ([2]; whole blood, po 10 mg/kg): 5930 ng·h/mL
Tmax ([2]; whole blood, po 10 mg/kg): 2 h
Cmax ([2]; whole blood, po 10 mg/kg, read-out: Cmax): 678 ng/mL
half-life ([2]; whole blood, po 10 mg/kg): 4.03 h
